US20220288057A1, “CONJOINT THERAPY FOR TREATING SEIZURE DISORDERS” (XENON PHARMACEUTICALS INC., priority 2021, published 2022)
Where two headings read alike, the source gives them in different places.

Test: Terminal plasma and brain concentrations in AC-MES studies (UHPLC-MS/MS)
Assay type: in vivo, mouse
Conditions: CF-1, mouse, in vivo; for Kp at 2 h: read-out: B/P Ratio
Description: Sample Collection and Preparation: Mice were anesthetized by isoflurane inhalation (according to SOP TECH-018) until they reached a surgical plane of anesthesia. Then a syringe (1 mL syringe with a 22 gauge needle) was inserted under the sternum into the heart (according to SOP TECH-031). Approximately 0.5 mL of blood was collected, deposited into a K2EDTA tube, and stored on ice. Animals were then euthanized by cervical dislocation. Brains were removed, placed into a pre-weighed vial, and snap frozen on dry ice. At the end of the sample collection, blood was centrifuged at 4000 rpm for 10 minutes at 4° C., and the plasma pipetted into a labeled tube. All samples were stored in a −80° C. freezer until the time of bioanalysis.
Plasma Samples: Extraction of plasma samples was carried out by protein precipitation using acetonitrile. Diluted plasma samples (50 μL) were mixed with 50 μL of internal standard (IS) solution in 1:1 acetonitrile:water (v:v) followed by addition of 200 μL of acetonitrile. Samples were vortexed for 30 seconds, centrifuged at 13,000 rpm for 20 minutes, decanted into a 96-well plate and further centrifuged at 4000 rpm for 20 minutes. The samples were analyzed by ultra-high performance liquid chromatography electrospray ionization tandem mass spectrometry (UHPLC-ESI-MS/MS) as described in the bioanalysis procedure below.
Brain Samples: Prior to extraction, pre-weighed whole brains were homogenized in 1:1 acetonitrile:water (v:v) (2 mL per mouse brain) using an IKA T18 Ultra-Turrax Homogenizer at the setting of 4 for approximately 1 minute. The homogenate was centrifuged at 13,000 rpm for 20 minutes and 50 μL of the supernatant were treated exactly as described in above for plasma samples.
Bioanalysis Procedures: All samples, including plasma and brain homogenate extracts (including calibration standards and quality control (QC) samples prepared in K2EDTA mouse plasma), were extracted by protein precipitation. To each 50 μL aliquot of sample, 50 μL of IS solution (2500 ng/mL of Lacosamide in water:acetonitrile (1:1)) and 50 μL of 6% (v:v) phosphoric acid in water were added, then 200 μL acetonitrile was added. The samples in 1.7 mL tubes were vortex-mixed then centrifuged for 20 minutes at 13,000 rpm. Fifty microliters of the supernatant was mixed with 150 μL of water:acetonitrile (1:1) in a 96 well plate, which was centrifuged post-mixing for 20 minutes at 4000 rpm. The samples were then ready for UHPLC-MS/MS analysis.
Samples were analyzed for Compound A by a research-grade UHPLC-MS/MS method using the conditions listed below.
Samples were analyzed for Lacosamide by a research-grade UHPLC-MS/MS method using the conditions listed below.
At least three QC samples, one at each concentration, had to show back-calculated values within ±20% of their nominal concentrations for the whole sample batch to be valid.
The Blinding and Randomization, Clinical Observations, AC-MES Assay, Sample Collection and Preparation, Plasma and Brain Samples Analysis, and Bioanalysis Procedures in Example 4 were identical to those used in Example 2.
Sample concentration determination and Data Processing and Analysis in Example 4 was identical to Example 2.

In the case of `COC[C@@H](NC(C)=O)C(=O)NCc1ccccc1` [Lacosamide, reference compound], the Kp at 2 h (6 mg/kg, Study 2A, Lacosamide 6 mg/kg PO, 2 h) is reported as 0.54, the concentration at 2 h (6 mg/kg, Study 2A, Lacosamide 6 mg/kg PO, 2 h, read-out: Mean Brain) is reported as 4.85 µM and the concentration at 2 h (6 mg/kg, Study 2A, Lacosamide 6 mg/kg PO, 2 h, read-out: Mean Plasma) is reported as 9.07 µM. For the same compound, the Kp at 2 h (6 mg/kg, Study 2D, Lacosamide 6 mg/kg PO, 2 h) was 1.15, the concentration at 2 h (6 mg/kg, Study 2D, Lacosamide 6 mg/kg PO, 2 h, read-out: Mean Brain) was 7.95 µM and the concentration at 2 h (6 mg/kg, Study 2D, Lacosamide 6 mg/kg PO, 2 h, read-out: Mean Plasma) was 6.9 µM. For the same compound, the Kp at 2 h (8 mg/kg, Study 2A, Lacosamide 8 mg/kg PO, 2 h) was 0.58, the concentration at 2 h (8 mg/kg, Study 2A, Lacosamide 8 mg/kg PO, 2 h, read-out: Mean Brain) was 6.27 µM and the concentration at 2 h (8 mg/kg, Study 2A, Lacosamide 8 mg/kg PO, 2 h, read-out: Mean Plasma) was 10.8 µM. The Kp at 2 h (10 mg/kg, Study 2B, Lacosamide 10 mg/kg PO, 2 h) was 0.21, the concentration at 2 h (10 mg/kg, Study 2B, Lacosamide 10 mg/kg PO, 2 h, read-out: Mean Brain) was 2.63 µM and the concentration at 2 h (10 mg/kg, Study 2B, Lacosamide 10 mg/kg PO, 2 h, read-out: Mean Plasma) was 12.6 µM. For the same compound, the Kp at 2 h (10 mg/kg, Study 2C, Lacosamide 10 mg/kg PO, 2 h, alone) was 0.28, the concentration at 2 h (10 mg/kg, Study 2C, Lacosamide 10 mg/kg PO, 2 h, alone, read-out: Mean Brain) was 4.84 µM and the concentration at 2 h (10 mg/kg, Study 2C, Lacosamide 10 mg/kg PO, 2 h, alone, read-out: Mean Plasma) was 17.1 µM. It also gave a Kp at 2 h (20 mg/kg, Study 2D, Lacosamide 20 mg/kg PO, 2 h) of 1.12, a concentration at 2 h (20 mg/kg, Study 2D, Lacosamide 20 mg/kg PO, 2 h, read-out: Mean Brain) of 26.8 µM and a concentration at 2 h (20 mg/kg, Study 2D, Lacosamide 20 mg/kg PO, 2 h, read-out: Mean Plasma) of 23.9 µM. It also gave a Kp at 2 h (Study 2C, analyte Lacosamide, 10 mg/kg PO 2 h + Compound A 3 mg/kg PO 0.5 h) of 0.29, a concentration at 2 h (Study 2C, analyte Lacosamide, 10 mg/kg PO 2 h + Compound A 3 mg/kg PO 0.5 h, read-out: Mean Brain) of 4.52 µM and a concentration at 2 h (Study 2C, analyte Lacosamide, 10 mg/kg PO 2 h + Compound A 3 mg/kg PO 0.5 h, read-out: Mean Plasma) of 15.5 µM.
